For the data set, the target named is ATP-dependent translocase ABCB1 (Homo sapiens, UniProt P08183). Put plainly: TP_TRANSPORTER: increase in Doxorubicin intracellular accumulation (Doxorubicin: 0.05 ug/mL, MS-209: 3 uM) in K562/ADM cells. The format is functional, cell-based. The note with it: k562/adr.
Sequence of ATP-dependent translocase ABCB1 (P08183 whole entry): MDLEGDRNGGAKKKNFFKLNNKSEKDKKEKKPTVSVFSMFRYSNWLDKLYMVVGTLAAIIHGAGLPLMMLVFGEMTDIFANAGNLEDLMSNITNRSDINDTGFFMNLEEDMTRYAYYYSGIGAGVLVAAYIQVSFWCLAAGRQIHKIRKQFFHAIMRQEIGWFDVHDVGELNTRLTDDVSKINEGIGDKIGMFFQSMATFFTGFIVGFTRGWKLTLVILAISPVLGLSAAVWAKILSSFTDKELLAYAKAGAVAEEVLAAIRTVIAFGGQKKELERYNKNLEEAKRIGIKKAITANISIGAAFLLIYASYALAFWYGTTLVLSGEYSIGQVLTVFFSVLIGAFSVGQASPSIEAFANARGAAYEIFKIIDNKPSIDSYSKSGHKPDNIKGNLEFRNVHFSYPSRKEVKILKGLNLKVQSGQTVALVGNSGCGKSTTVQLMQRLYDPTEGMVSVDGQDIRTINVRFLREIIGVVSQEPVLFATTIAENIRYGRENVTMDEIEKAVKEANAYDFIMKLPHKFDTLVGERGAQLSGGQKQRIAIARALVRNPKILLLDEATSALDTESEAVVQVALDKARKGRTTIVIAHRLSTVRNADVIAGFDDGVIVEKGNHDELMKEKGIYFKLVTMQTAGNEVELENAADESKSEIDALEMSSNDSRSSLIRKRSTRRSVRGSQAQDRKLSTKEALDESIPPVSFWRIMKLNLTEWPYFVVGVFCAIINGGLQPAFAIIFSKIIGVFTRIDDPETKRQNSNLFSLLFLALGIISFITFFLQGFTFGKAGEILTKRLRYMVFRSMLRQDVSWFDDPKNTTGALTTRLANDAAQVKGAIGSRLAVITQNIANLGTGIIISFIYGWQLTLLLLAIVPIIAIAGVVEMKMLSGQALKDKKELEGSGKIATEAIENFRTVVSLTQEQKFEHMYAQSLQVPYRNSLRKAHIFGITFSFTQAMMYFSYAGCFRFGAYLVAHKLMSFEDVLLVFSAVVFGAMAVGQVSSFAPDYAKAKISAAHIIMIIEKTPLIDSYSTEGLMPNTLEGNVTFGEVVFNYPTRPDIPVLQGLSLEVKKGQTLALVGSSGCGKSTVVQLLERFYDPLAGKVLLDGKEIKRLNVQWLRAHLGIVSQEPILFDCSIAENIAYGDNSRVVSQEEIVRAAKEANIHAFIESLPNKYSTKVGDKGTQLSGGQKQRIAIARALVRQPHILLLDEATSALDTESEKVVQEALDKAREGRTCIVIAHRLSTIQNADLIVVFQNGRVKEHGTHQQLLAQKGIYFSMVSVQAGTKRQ

For `O=C(C(c1ccccc1)c1ccccc1)N1CCN(C[C@@H](O)COc2cccc3ncccc23)CC1`, the Activity entry was “inhibitor [+]”.

The values above are taken from ChEMBL document CHEMBL2074138, “New multidrug-resistance-reversing drugs, MS-209 and SDZ PSC 833” (Cancer Chemother Pharmacol, 1997).
